Values quoted from earlier work, collected in patent US20050112193A1, “Immediate-release formulations of acid-labile pharmaceutical compositions” (priority 2003, published 2005).
Where two headings read alike, the source gives them in different places.

Tests used:
[1] = in water
[2] = for time to undergo 50% degradation: acidic stomach / gastric environment, pH of 1.2 given for pantoprazole sodium and rabeprazole sodium

## COc1ccc2[nH]c([S+]([O-])Cc3ncc(C)c(OC)c3C)nc2c1 (stereo not drawn) [Omeprazole, 5-methoxy-2-[[(4-methoxy-3,5-dimethyl-2-pyridinyl)methyl]sulfinyl]-1H-benzimidazole]
[1]; listed as Omeprazole base
  Solubility: slightly soluble
[2]
  time to undergo 50% degradation: less than 3 minutes
[2]; pH 1.2
  time for 50% of drug to be degraded (t ½): 0.0467 h
[2]; pH 5.1
  time for 50% of drug to be degraded (t ½): 1.4 h
[2]; pH 6
  time for 50% of drug to be degraded (t ½): 7.3 h
[2]; pH 7
  time for 50% of drug to be degraded (t ½): 39 h
other
  pKa: 3.9

## Cc1c(OCC(F)(F)F)ccnc1C[S+]([O-])c1nc2ccccc2[nH]1 (stereo not drawn) [Lansoprazole]
[1]; listed as Lansoprazole base
  Solubility: very slightly soluble
[2]
  time to undergo 50% degradation: 2 min
[2]; pH 1.2
  time for 50% of drug to be degraded (t ½): 0.0333 h
[2]; pH 5.1
  time for 50% of drug to be degraded (t ½): 1.5 h
[2]; pH 6
  time for 50% of drug to be degraded (t ½): 6.4 h
[2]; pH 7
  time for 50% of drug to be degraded (t ½): 35 h
other
  pKa: 4.1

## COc1ccnc(C[S+]([O-])c2nc3ccc(OC(F)F)cc3[nH]2)c1OC (stereo not drawn) [Pantoprazole sodium]
[1]
  Solubility: very soluble
[2]
  time to undergo 50% degradation: less than 5 minutes
[2]; pH 1.2
  time for 50% of drug to be degraded (t ½): 0.0767 h
[2]; pH 5
  time for 50% of drug to be degraded (t ½): 2.8 h
[2]; pH 5.1
  time for 50% of drug to be degraded (t ½): 4.7 h
[2]; pH 6
  time for 50% of drug to be degraded (t ½): 21 h
[2]; pH 7
  time for 50% of drug to be degraded (t ½): 73 h
other
  pKa: 3

## COCCCOc1ccnc(C[S+]([O-])c2nc3ccccc3[nH]2)c1C (stereo not drawn) [Rabeprazole sodium]
[1]
  Solubility: Very soluble
[2]
  time to undergo 50% degradation: less than 1.5 minutes
[2]; pH 1.2
  time for 50% of drug to be degraded (t ½): 0.0217 h
[2]; pH 5.1
  time for 50% of drug to be degraded (t ½): 0.12 h
other
  pKa: 4.9
